From patent US20240116985A1, “STAPLED PEPTIDES AND METHODS THEREOF” (priority 2020, published 2024) come the findings set out here.

In brackets after ≈: the same amount, converted by molar mass. Where two headings read alike, the source gives them in different places.

What is called Solubility is the concentration that dissolves in the medium under given conditions. Read a high Solubility as much dissolved substance. As a reminder, the chromatographic logD is a lipophilicity value derived from retention on a column. Higher therefore signals higher lipophilicity. Usually logD stands for the decadic logarithm of the distribution of all forms, ionised or not, between an organic phase and buffer at a given pH.

Data set [1] concerns the target T1, full-length beta-Catenin (Uniprot ID P35222) (Homo sapiens, UniProt P35222).
T1 construct: 10 nM full-length beta-Catenin (Uniprot ID P35222)
T1 sequence (P35222 1-781): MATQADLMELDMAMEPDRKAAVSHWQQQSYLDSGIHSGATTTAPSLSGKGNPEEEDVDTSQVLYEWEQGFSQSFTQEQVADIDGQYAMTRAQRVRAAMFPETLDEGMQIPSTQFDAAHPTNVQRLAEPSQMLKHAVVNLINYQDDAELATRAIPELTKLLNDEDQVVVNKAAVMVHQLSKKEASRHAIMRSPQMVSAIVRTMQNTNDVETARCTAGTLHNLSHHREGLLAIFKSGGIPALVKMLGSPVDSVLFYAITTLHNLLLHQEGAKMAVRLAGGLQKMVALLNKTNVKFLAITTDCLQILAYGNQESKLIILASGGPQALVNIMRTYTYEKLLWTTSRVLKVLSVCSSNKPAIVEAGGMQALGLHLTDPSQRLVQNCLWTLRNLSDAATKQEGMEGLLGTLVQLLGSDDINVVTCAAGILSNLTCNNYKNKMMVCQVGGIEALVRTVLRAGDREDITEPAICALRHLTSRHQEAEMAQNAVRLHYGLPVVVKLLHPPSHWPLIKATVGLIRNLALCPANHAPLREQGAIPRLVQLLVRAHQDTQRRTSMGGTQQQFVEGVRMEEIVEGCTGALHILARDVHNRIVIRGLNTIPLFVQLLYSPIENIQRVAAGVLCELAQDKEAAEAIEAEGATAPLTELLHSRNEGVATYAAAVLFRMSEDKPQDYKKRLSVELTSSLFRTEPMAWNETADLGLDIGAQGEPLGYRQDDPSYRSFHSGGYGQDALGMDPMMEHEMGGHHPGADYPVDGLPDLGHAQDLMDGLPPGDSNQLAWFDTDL
Description: Fluorescence polarization IC50 (beta-catenin / 5FAM-TCF4 10-53 competition). The format is binding. A general note: Polarisation of emitted light reports the rotation of a fluorescent probe.

A short description of a further data set: CHI Log D procedure. The format is physicochemical. Conditions: for CHI Log D: pH 7.4; for chromatographic logD / logD: pH 7.4, CHI Log D.
A short description of the next data set: Solubility in PBS. The format is physicochemical. A digest of the protocol:
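Solubility is derived from HPLC peak areas: the ratio of the PBS supernatant peak to a 50 μM DMSO peptide peak, times 50 uM.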

Where [2] appears, read: Table E2-1, read-out: beta-Catenin FP IC50.
The mark [3] stands for this setting: fluorescence polarization, beta-catenin, read-out: FP EC50.
[4] abbreviates: fluorescence polarization, read-out: beta-Catenin FP IC50.

Regarding `CC(=O)N1CCC[C@]12CC=CCCCC1(CCCC=CCCCCCC[C@@](C)(C(=O)N[C@@H](Cc3cccc(F)c3)C(=O)N[C@@H](Cc3csc4ccccc34)C(=O)N[C@@H](CCC(N)=O)C(N)=O)NC(=O)[C@H](C(C)C)NC(=O)[C@H](Cc3ccccc3)NC(=O)[C@H](C)NC(=O)[C@H](C)NC(=O)[C@H](CC(N)=O)NC(=O)[C@H](CC(=O)O)NC1=O)NC(=O)[C@H](C)NC(=O)[C@H](CC(=O)O)NC2=O` (stereo partly drawn) [I-382, Ac-PL3-Asp-Ala-B5-Asp-Asn-Ala-Ala-Phe-Val-S8-3FF-BztA-Gln-NH2], the IC50 in data set [1] (setting [2]) and in data set [1] (setting [3]) was 2.06 µM each time. Besides, the “CHI Log D” value in “CHI Log D procedure” was 2.631. For the same molecule, the “Solubility” value in the data set “Solubility in PBS” turned out to be 10 µM (≈ 18.2 µg/mL).
With `CC(=O)N1CCC[C@]12CC=CCCCC1(CCCC=CCCCCCC[C@@](C)(C(=O)N[C@@H](Cc3ccccn3)C(=O)N[C@@H](Cc3csc4ccccc34)C(=O)N[C@@H](CCC(N)=O)C(N)=O)NC(=O)[C@H](C(C)C)NC(=O)[C@H](Cc3ccccc3)NC(=O)[C@H](C)NC(=O)[C@H](C)NC(=O)[C@H](CCC(=O)O)NC(=O)[C@H](CC(=O)O)NC1=O)NC(=O)[C@H](C)NC(=O)[C@H](CC(=O)O)NC2=O` (stereo partly drawn) [I-384, Ac-PL3-Asp-Ala-B5-Asp-Glu-Ala-Ala-Phe-Val-S8-2pyrA-BztA-Gln-NH2], the IC50 in data set [1] (setting [2]) and in data set [1] (setting [3]) was 0.177 µM each time. In the data set “CHI Log D procedure”, the “CHI Log D” value was found to be 1.837. The “Solubility” value in “Solubility in PBS” was 45 µM (≈ 81.6 µg/mL).
As for `CC(=O)N1CCC[C@]12CC=CCCCC1(CCCC=CCCCCCC[C@@](C)(C(=O)N[C@@H](Cc3ccncc3)C(=O)N[C@@H](Cc3csc4ccccc34)C(=O)N[C@@H](CCC(N)=O)C(N)=O)NC(=O)[C@H](C(C)C)NC(=O)[C@H](Cc3ccccc3)NC(=O)[C@H](C)NC(=O)[C@H](C)NC(=O)[C@H](CCC(=O)O)NC(=O)[C@H](CC(=O)O)NC1=O)NC(=O)[C@H](C)NC(=O)[C@H](CC(=O)O)NC2=O` (stereo partly drawn) [I-385, Ac-PL3-Asp-Ala-B5-Asp-Glu-Ala-Ala-Phe-Val-S8-4pyrA-BztA-Gln-NH2], in data set [1] (setting [4]), the IC50 turned out to be 3.15 µM. Further, the chromatographic logD in the data set “CHI Log D procedure” was 1.71. Also, the “Solubility” value in the data set “Solubility in PBS” came to 50 µM (≈ 90.7 µg/mL).
As to `CC(=O)N1CCC[C@]12CC=CCCCC1(CCCC=CCCCCCC[C@@](C)(C(=O)N[C@@H](Cc3ccccc3)C(=O)N[C@@H](Cc3csc4ccccc34)C(=O)N[C@@H](CCC(N)=O)C(N)=O)NC(=O)[C@H](C(C)C)NC(=O)[C@H](Cc3ccccn3)NC(=O)[C@H](C)NC(=O)[C@H](C)NC(=O)[C@H](CCC(=O)O)NC(=O)[C@H](CC(=O)O)NC1=O)NC(=O)[C@H](C)NC(=O)[C@H](CC(=O)O)NC2=O` (stereo partly drawn) [I-387, Ac-PL3-Asp-Ala-B5-Asp-Glu-Ala-Ala-2pyrA-Val-S8-Phe-BztA-Gln-NH2], the IC50 in data set [1] (setting [3]) and in data set [1] (setting [4]) was 2.62 µM in each case. Also, in the data set “CHI Log D procedure”, the “CHI Log D” value was found to be 2.136. The “Solubility” value in “Solubility in PBS” came out at 48 µM (≈ 87 µg/mL).
For `CC(=O)N1CCC[C@]12CC=CCCCC1(CCCC=CCCCCCC[C@@](C)(C(=O)N[C@@H](Cc3ccccc3)C(=O)N[C@@H](Cc3csc4ccccc34)C(=O)N[C@@H](CCC(N)=O)C(N)=O)NC(=O)[C@H](C(C)C)NC(=O)[C@H](Cc3cccc(F)c3F)NC(=O)[C@H](C)NC(=O)[C@H](C)NC(=O)[C@H](CCC(=O)O)NC(=O)[C@H](CC(=O)O)NC1=O)NC(=O)[C@H](C)NC(=O)[C@H](CC(=O)O)NC2=O` (stereo partly drawn) [I-390, Ac-PL3-Asp-Ala-B5-Asp-Glu-Ala-Ala-23FF-Val-S8-Phe-BztA-Gln-NH2], the IC50 in data set [1] (setting [3]) and in data set [1] (setting [4]) was 3.42 µM throughout. In “CHI Log D procedure”, the “CHI Log D” value was found to be 2.587. For the same molecule, in the data set “Solubility in PBS”, the “Solubility” value came to 10 µM (≈ 18.5 µg/mL).
Consider `CC(=O)N1CCC[C@]12CC=CCCCC1(CCCC=CCCCCCC[C@@](C)(C(=O)N[C@@H](Cc3ccccc3)C(=O)N[C@@H](Cc3csc4ccccc34)C(=O)N[C@@H](CCC(N)=O)C(N)=O)NC(=O)[C@H](C(C)C)NC(=O)[C@H](Cc3cccc(F)c3F)NC(=O)[C@H](C)NC(=O)[C@H](C)NC(=O)[C@H](CCC(=O)O)NC(=O)[C@H](CC(=O)O)NC1=O)NC(=O)[C@H](C)NC(=O)[C@H](CC(=O)O)NC2=O` (stereo partly drawn) [I-391, Ac-PL3-Asp-Ala-B5-Asp-Glu-Ala-Ala-23FF-Val-S8-Phe-BztA-Gln-NH2], for which the IC50 in data set [1] (setting [3]) and in data set [1] (setting [4]) was 1.91 µM each time. Also, in “CHI Log D procedure”, the “CHI Log D” value was determined as 2.585. The “Solubility” value in the data set “Solubility in PBS” amounted to 10 µM (≈ 18.5 µg/mL).
With `CC(=O)N1CCC[C@]12CC=CCCCC1(CCCC=CCCCCCC[C@@](C)(C(=O)N[C@@H](Cc3ccccc3)C(=O)N[C@@H](Cc3csc4ccccc34)C(=O)N[C@@H](CCC(N)=O)C(N)=O)NC(=O)[C@H](C(C)C)NC(=O)[C@H](CC3CCCC3)NC(=O)[C@H](C)NC(=O)[C@H](C)NC(=O)[C@H](CCC(=O)O)NC(=O)[C@H](CC(=O)O)NC1=O)NC(=O)[C@H](C)NC(=O)[C@H](CC(=O)O)NC2=O` (stereo partly drawn) [I-392, Ac-PL3-Asp-Ala-B5-Asp-Glu-Ala-Ala-CypA-Val-S8-Phe-BztA-Gln-NH2], in data set [1] (setting [4]), the IC50 worked out at 5 µM. In “CHI Log D procedure”, this molecule had a logD of 2.52. The “Solubility” value in “Solubility in PBS” is 10 µM (≈ 18 µg/mL).
The corresponding values for `CC(=O)N1CCC[C@]12CC=CCCCC1(CCCC=CCCCCCC[C@@](C)(C(=O)N[C@@H](CC3CCCC3)C(=O)N[C@@H](Cc3csc4ccccc34)C(=O)N[C@@H](CCC(N)=O)C(N)=O)NC(=O)[C@H](C(C)C)NC(=O)[C@H](Cc3ccccc3)NC(=O)[C@H](C)NC(=O)[C@H](C)NC(=O)[C@H](CCC(=O)O)NC(=O)[C@H](CC(=O)O)NC1=O)NC(=O)[C@H](C)NC(=O)[C@H](CC(=O)O)NC2=O` (stereo partly drawn) [I-393, Ac-PL3-Asp-Ala-B5-Asp-Glu-Ala-Ala-Phe-Val-S8-CypA-BztA-Gln-NH2] are 1.95 µM, 2.64 and 10 µM (≈ 18 µg/mL).
Take `CC(=O)N1CCC[C@]12CC=CCCCC1(CCCC=CCOC(=O)N(C)CCC[C@@](C)(C(=O)N[C@@H](Cc3cccc(F)c3)C(=O)N[C@@H](Cc3csc4ccccc34)C(=O)N[C@@H](CCC(N)=O)C(N)=O)NC(=O)[C@H](C(C)C)NC(=O)[C@H](Cc3ccccc3)NC(=O)[C@H](C)NC(=O)[C@H](C)NC(=O)[C@H](Cc3c[nH]cn3)NC(=O)[C@H](CC(=O)O)NC1=O)NC(=O)[C@H](C)NC(=O)[C@H](CC(=O)O)NC2=O` (stereo partly drawn) [I-398, Ac-PL3-Asp-Ala-B5-Asp-His-Ala-Ala-Phe-Val-SeN-3FF-BztA-Gln-NH2]: in data set [1] (setting [4]), the IC50 came to 2.15 µM. The molecule also yielded a chromatographic logD in the data set “CHI Log D procedure” of 1.85. In “Solubility in PBS” (Solubility (uM)), this molecule showed a Solubility of 46 µM (≈ 86.6 µg/mL).
The corresponding values for `CC(=O)N1CCC[C@]12CC=CCCCC1(CCCC=CCCCCCC[C@@](C)(C(=O)N[C@@H](Cc3ccccc3)C(=O)N[C@@H](Cc3csc4ccccc34)C(=O)N[C@@H](CCC(N)=O)C(N)=O)NC(=O)[C@H](CCC(N)=O)NC(=O)[C@H](Cc3ccccc3)NC(=O)[C@H](C)NC(=O)[C@H](C)NC(=O)[C@H](CCC(=O)O)NC(=O)[C@H](CC(=O)O)NC1=O)NC(=O)[C@H](C)NC(=O)[C@H](CC(=O)O)NC2=O` (stereo partly drawn) [I-406, Ac-PL3-Asp-Ala-B5-Asp-Glu-Ala-Ala-Phe-Gln-S8-Phe-BztA-Gln-NH2] are 0.094 µM, 2.04 and 28 µM (≈ 51.6 µg/mL).
As to `CC[C@H](C)[C@@H]1NC(=O)[C@H](CC(=O)O)NC(=O)[C@]2(CC=CCCCC3(CCCC=CCCCCCC[C@@](C)(C(=O)N[C@@H](Cc4ccccc4)C(=O)N[C@@H](Cc4csc5ccccc45)C(N)=O)NC(=O)[C@H](CCC(N)=O)NC(=O)[C@H](Cc4ccccc4)NC(=O)[C@H](C)NC(=O)[C@H](C)NC(=O)[C@H](CCC(=O)O)NC(=O)[C@H](CC(=O)O)NC3=O)NC1=O)CCCN2C(C)=O` (stereo partly drawn) [I-408, Ac-PL3-Asp-Ile-B5-Asp-Glu-Ala-Ala-Phe-Gln-S8-Phe-BztA-NH2], the IC50 in data set [1] (setting [4]) and in data set [1] (read-out: FP EC50) was 0.12 µM each time. In “CHI Log D procedure”, the “CHI Log D” value was 2.674. Also, the “Solubility” value in the data set “Solubility in PBS” was 50 µM (≈ 87.8 µg/mL).
In the case of `CC[C@H](C)[C@@H]1NC(=O)[C@H](CC(=O)O)NC(=O)[C@]2(CC=CCCCC3(CCCC=CCCCCCC[C@@](C)(C(=O)N[C@@H](Cc4ccccc4)C(=O)N[C@@H](Cc4csc5ccccc45)C(N)=O)NC(=O)[C@H](CCC(N)=O)NC(=O)[C@H](Cc4ccccc4)NC(=O)[C@H](C)NC(=O)[C@H](C)NC(=O)[C@H](CCC(=O)O)NC(=O)[C@H](CC(=O)O)NC3=O)NC1=O)CCCN2C(C)=O` (stereo partly drawn) [I-409, Ac-PL3-Asp-Ile-B5-Asp-Glu-Ala-Ala-Phe-Gln-S8-Phe-BztA-NH2], the IC50 in data set [1] (setting [4]) and in data set [1] (read-out: FP EC50) was 0.07 µM in each case. The “CHI Log D” value in “CHI Log D procedure” was 2.741. Besides, the “Solubility” value in “Solubility in PBS” came out at 48 µM (≈ 84.2 µg/mL).
